In this assay the test system is RNA of Stop-POST5 and 80S.IRES complexes. The assay can be described thus: LASER-seq mutational profiling of AzAt photoincorporation sites. Format: binding, shrimp (Artemia salina). The conditions noted are these: 300 μM AzAt. As for the experimental part: RNA-Seq procedures employed closely follow those published (Zinshteyn et al., Nucleic Acids Res, 47, 43-55 (2019); McClary et al., Cell Chem Biol, 24, 605-613 e605 (2017)) except as noted.
Library preparation. RNA-seq libraries were prepared for PAL, PRE, UV, and NUL samples, as defined in Results, of Stop-POST5 and 80S.IRES complexes, using published procedures (Zinshteyn et al., Nucleic Acids Res, 47, 43-55 (2019); McClary et al., Cell Chem Biol, 24, 605-613 e605 (2017)) with the slight modifications that a 12% 0.13 M Tris/45 mM Borate/2.5 mM EDTA (pH 7.6))—Urea PAGE gel replaced a 10% PAGE gel and the selected RNA fragment size was 40-70 bp rather than 60-70 bp. In brief, RNA was extracted and randomly fragmentated by ZnCl2 (Sigma). After separation on the TBE-Urea PAGE gel, RNA fragments, visualized by ethidium bromide staining (used for all RNA gels) were sliced and extracted from the gel by crushing the gel and vigorously shaking (1400 rpm) at 70° C. in 400 μL of water for 15 min. The 3′ ends were dephosphorylated by T4 Polynucleotide Kinase (New England Biolab). The miRNA cloning linker 2 (5′App/[…]/3′ddC (SEQ ID NO: 11), Integrated DNA Technologies) was used as the universal 3′ linker and pre-adenylated using the 5′ DNA Adenylation Kit (New England Biolab) with the provided protocol. Reverse transcription, self-circularization, and PCR amplification were performed essentially the same as previously described (McClary et al., Cell Chem Biol, 24, 605-613 e605 (2017)). Library sequencing was performed on Illumina NextSeq with single-end mode for up to 75 bp read length.
Data processing. Sequencing reads were processed by Cutadapt 2.10 (cutadapt.readthedocs.io/en/stable/) to remove 3′ end linkers and then inputted into Shapemapper2 (Busan et al., RNA, 24(2):143-148 (2018)) to count the mutations and effective sequencing reads, using the STAR Aligner mode (Dobin et al., STAR: ultrafast universal RNA-seq aligner. Bioinformatics. 29:15-21 (2013)). The mutation rate of each nucleotide was calculated by dividing the number of the reads containing the mutations by the total number of reads, outputted as N.
For the PAL sample, the mutation rate fold change was calculated by dividing the mutation rate of the PAL sample by the mutation rate of the PRE sample. The average mutation count was calculated by averaging the number of mutations of the PAL and PRE samples. MA plots (FIG. 3A, FIG. 3B, FIG. 3C and FIG. 3D) were charted by plotting the mutation rate fold change of each nucleotide as a function of the average mutation count of each nucleotide. To determine possibly significant sites of AzAt labeling, the dataset was first screened for points that meet the criteria of a mutation rate fold change ≥1.5 and an average mutation count ≥100. Points meeting these criteria were further screened with Z-factor >0 and p-value <0.05 to determine statistical significance. The Z-factor (z) was calculated using the following equation
For each complex LASER-Seq was carried out on four types of samples, denoted PAL, PRE, UV, and NUL. PAL samples were prepared by photoaffinity labeling of complexes with 300 μM AzAt, a concentration close to saturating for photoincorporation (FIG. 2C). PRE samples were prepared using separately prephotolyzed AzAt that was re-irradiated in the presence of complexes. UV and NUL samples were prepared in the absence of AzAt by either subjecting complexes to uv irradiation (UV) or just analyzing complexes directly (NUL).
The sites of modification arising exclusively via nitrene formation on irradiation of AzAt was first identified by the mutation rate fold change of PAL vs. PRE samples, a procedure which corrects for mutation rates arising from noncovalent binding, or covalent photoincorporation of pre-photolyzed AzAt, or uv-induced mutations not related to AzAt (Table 4). The results obtained for the ≥6,006 nucleotides present in these two complexes are presented in FIG. 3A, FIG. 3B, FIG. 3C and FIG. 3D. […]

Regarding `[N-]=[N+]=Nc1ccc(-c2nc(-c3cccc(C(=O)O)c3)no2)cc1` [AzAt], the “mutation rate change, 26S-A1437” value turned out to be 1.4 fold; the “mutation rate change, 26S-A1438” value was determined as 1.3 fold; the “mutation rate change, IRES-A142” value is given as 1.4 fold; the “mutation rate change, IRES-G186” value is on record as 2.0 fold. Moreover, the “mutation rate change, IRES-U177” value is given as 2.4 fold. Further, the “mutation rate fold-increase PAL vs. PRE, 18S-A1195” value (in both complexes) is listed as about 9 fold.

(Values after patent US20230235374A1, “High Throughput Assays for Detecting Translation Readthrough Inducers” (The Trustees of the University of Pennsylvania, priority 2021, published 2023).)
